Measurements reported in BigSolDB 2.1.

NC(=O)c1ccccc1N
Details | solubility (mole fraction)
in THF, 273.15 K | 0.226
in THF, 279.15 K | 0.237
in THF, 283.65 K | 0.245
in THF, 289.15 K | 0.255
in THF, 293.45 K | 0.263
in THF, 299.15 K | 0.275
in THF, 303.35 K | 0.284
in THF, 309.15 K | 0.296
in THF, 313.75 K | 0.31
in THF, 319.15 K | 0.326
in THF, 323.65 K | 0.339
in acetone, 273.15 K | 0.164
in acetone, 279.15 K | 0.181
in acetone, 284.15 K | 0.193
in acetone, 289.15 K | 0.208
in acetone, 293.35 K | 0.223
in acetone, 298.95 K | 0.243
in acetone, 303.35 K | 0.265
in acetone, 308.65 K | 0.292
in acetone, 313.15 K | 0.313
in acetone, 317.15 K | 0.341
in acetone, 324.15 K | 0.386
in acetonitrile, 273.15 K | 0.01
in acetonitrile, 279.15 K | 0.0139
in acetonitrile, 283.65 K | 0.0194
in acetonitrile, 289.15 K | 0.0267
in acetonitrile, 293.45 K | 0.0371
in acetonitrile, 299.15 K | 0.0531
in acetonitrile, 303.35 K | 0.066
in acetonitrile, 309.15 K | 0.0871
in acetonitrile, 313.75 K | 0.111
in acetonitrile, 319.15 K | 0.151
in acetonitrile, 323.65 K | 0.183
in ethanol, 273.15 K | 0.0302
in ethanol, 279.15 K | 0.0356
in ethanol, 284.15 K | 0.04
in ethanol, 289.15 K | 0.0477
in ethanol, 293.35 K | 0.0554
in ethanol, 298.95 K | 0.0648
in ethanol, 303.35 K | 0.0742
in ethanol, 313.15 K | 0.105
in ethanol, 317.15 K | 0.117
in ethanol, 324.15 K | 0.143
in ethyl acetate, 273.15 K | 0.053
in ethyl acetate, 279.15 K | 0.0608
in ethyl acetate, 283.65 K | 0.0684
in ethyl acetate, 289.15 K | 0.0778
in ethyl acetate, 293.45 K | 0.0856
in ethyl acetate, 299.15 K | 0.0977
in ethyl acetate, 303.35 K | 0.108
in ethyl acetate, 309.15 K | 0.123
in ethyl acetate, 313.75 K | 0.134
in ethyl acetate, 319.15 K | 0.154
in ethyl acetate, 323.65 K | 0.169
in isobutanol, 273.15 K | 0.0101
in isobutanol, 279.15 K | 0.013
in isobutanol, 284.15 K | 0.0153
in isobutanol, 289.15 K | 0.0176
in isobutanol, 293.35 K | 0.0211
in isobutanol, 298.95 K | 0.0261
in isobutanol, 303.35 K | 0.0301
in isobutanol, 308.65 K | 0.0369
in isobutanol, 313.15 K | 0.044
in isobutanol, 317.15 K | 0.0504
in isobutanol, 324.15 K | 0.0629
in isopentanol, 273.15 K | 0.0117
in isopentanol, 279.15 K | 0.014
in isopentanol, 283.65 K | 0.0152
in isopentanol, 289.15 K | 0.0181
in isopentanol, 293.25 K | 0.0217
in isopentanol, 298.95 K | 0.0273
in isopentanol, 303.25 K | 0.0312
in isopentanol, 308.15 K | 0.0391
in isopentanol, 313.15 K | 0.0458
in isopentanol, 318.15 K | 0.055
in isopentanol, 323.15 K | 0.0647
in isopropanol, 273.15 K | 0.0145
in isopropanol, 279.15 K | 0.0182
in isopropanol, 284.15 K | 0.0216
in isopropanol, 289.15 K | 0.0253
in isopropanol, 293.35 K | 0.0297
in isopropanol, 298.95 K | 0.0355
in isopropanol, 303.35 K | 0.042
in isopropanol, 308.65 K | 0.0505
in isopropanol, 313.15 K | 0.0593
in isopropanol, 317.15 K | 0.0676
in isopropanol, 324.15 K | 0.0844
in methanol, 273.15 K | 0.05
in methanol, 279.15 K | 0.0604
in methanol, 284.15 K | 0.0684
in methanol, 289.15 K | 0.0798
in methanol, 293.35 K | 0.0905
in methanol, 298.95 K | 0.106
in methanol, 303.35 K | 0.123
in methanol, 308.65 K | 0.148
in methanol, 313.15 K | 0.17
in methanol, 317.15 K | 0.19
in methanol, 324.15 K | 0.229
in methyl acetate, 273.15 K | 0.0644
in methyl acetate, 279.15 K | 0.0723
in methyl acetate, 283.65 K | 0.0797
in methyl acetate, 289.15 K | 0.0892
in methyl acetate, 293.25 K | 0.1
in methyl acetate, 298.95 K | 0.114
in methyl acetate, 303.25 K | 0.127
in methyl acetate, 308.15 K | 0.144
in methyl acetate, 313.15 K | 0.163
in methyl acetate, 318.15 K | 0.186
in methyl acetate, 323.15 K | 0.208
in n-butanol, 273.15 K | 0.0162
in n-butanol, 279.15 K | 0.0198
in n-butanol, 284.15 K | 0.0232
in n-butanol, 289.15 K | 0.0268
in n-butanol, 293.35 K | 0.0312
in n-butanol, 298.95 K | 0.0362
in n-butanol, 303.35 K | 0.0423
in n-butanol, 308.65 K | 0.0492
in n-butanol, 313.15 K | 0.0579
in n-butanol, 317.15 K | 0.065
in n-butanol, 324.15 K | 0.0788
in n-hexanol, 273.15 K | 0.0141
in n-hexanol, 279.15 K | 0.0166
in n-hexanol, 283.65 K | 0.0174
in n-hexanol, 289.15 K | 0.0216
in n-hexanol, 293.25 K | 0.0246
in n-hexanol, 298.95 K | 0.0297
in n-hexanol, 303.25 K | 0.034
in n-hexanol, 308.15 K | 0.0407
in n-hexanol, 313.15 K | 0.0468
in n-hexanol, 318.15 K | 0.0557
in n-hexanol, 323.15 K | 0.0641
in n-octanol, 273.15 K | 0.0143
in n-octanol, 279.15 K | 0.0159
in n-octanol, 283.65 K | 0.0176
in n-octanol, 289.15 K | 0.0206
in n-octanol, 293.25 K | 0.0235
in n-octanol, 298.95 K | 0.0275
in n-octanol, 303.25 K | 0.0316
in n-octanol, 308.15 K | 0.0377
in n-octanol, 313.15 K | 0.0434
in n-octanol, 318.15 K | 0.0505
in n-octanol, 323.15 K | 0.0582
in n-pentanol, 273.15 K | 0.0152
in n-pentanol, 279.15 K | 0.0183
in n-pentanol, 284.15 K | 0.0207
in n-pentanol, 289.15 K | 0.0243
in n-pentanol, 293.35 K | 0.0276
in n-pentanol, 298.95 K | 0.0326
in n-pentanol, 303.35 K | 0.0379
in n-pentanol, 308.65 K | 0.044
in n-pentanol, 313.15 K | 0.0514
in n-pentanol, 317.15 K | 0.0579
in n-pentanol, 324.15 K | 0.0703
in n-propanol, 273.15 K | 0.0193
in n-propanol, 279.15 K | 0.0232
in n-propanol, 284.15 K | 0.027
in n-propanol, 289.15 K | 0.0314
in n-propanol, 293.35 K | 0.0363
in n-propanol, 303.35 K | 0.0513
in n-propanol, 308.65 K | 0.0626
in n-propanol, 313.15 K | 0.0728
in n-propanol, 317.15 K | 0.0842
in n-propanol, 324.15 K | 0.105
